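Results reflect a 48-hour exposure of cells in 96-well plates to compound at five concentrations. TGI marks complete inhibition of growth.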
How the values were obtained:
Assay in all cases: NCI tumour cell line growth inhibition, 48 h
SR leukemia = test system: SR leukemia
SNB-75 CNS = test system: SNB-75 CNS
OVCAR-3 ovarian = test system: OVCAR-3 ovarian
CCRF-CEM leukemia = test system: CCRF-CEM leukemia
TK-10 renal = test system: TK-10 renal
MOLT-4 leukemia = test system: MOLT-4 leukemia
NCI-H460 lung = test system: NCI-H460 lung
HOP-92 NSCLC = test system: HOP-92 NSCLC
SF-295 CNS = test system: SF-295 CNS
SK-MEL-5 melanoma = test system: SK-MEL-5 melanoma
SNB-19 CNS = test system: SNB-19 CNS
HOP-62 NSCLC = test system: HOP-62 NSCLC
SK-MEL-28 melanoma = test system: SK-MEL-28 melanoma
UACC-257 melanoma = test system: UACC-257 melanoma
A549 NSCLC = test system: A549 NSCLC
HCT-116 colon = test system: HCT-116 colon
HOP-18 NSCLC = test system: HOP-18 NSCLC
HCC-2998 colon = test system: HCC-2998 colon
SF-268 CNS = test system: SF-268 CNS
NCI-H522 lung = test system: NCI-H522 lung
ACHN renal = test system: ACHN renal
DLD-1 colon = test system: DLD-1 colon
COLO 205 colon = test system: COLO 205 colon
UACC-62 melanoma = test system: UACC-62 melanoma
OVCAR-5 ovarian = test system: OVCAR-5 ovarian
IGROV1 ovarian = test system: IGROV1 ovarian
MALME-3M melanoma = test system: MALME-3M melanoma
SF-539 CNS = test system: SF-539 CNS
KM12 colon = test system: KM12 colon
HT29 colon = test system: HT29 colon
UO-31 renal = test system: UO-31 renal
LXFL 529 NSCLC = test system: LXFL 529 NSCLC
OVCAR-8 ovarian = test system: OVCAR-8 ovarian
HL-60(TB) leukemia = test system: HL-60(TB) leukemia
M19-MEL melanoma = test system: M19-MEL melanoma
NCI-H23 lung = test system: NCI-H23 lung
K-562 leukemia = test system: K-562 leukemia
U251 CNS = test system: U251 CNS
SK-OV-3 ovarian = test system: SK-OV-3 ovarian
NCI-H226 lung = test system: NCI-H226 lung
RPMI-8226 leukemia = test system: RPMI-8226 leukemia
SK-MEL-2 melanoma = test system: SK-MEL-2 melanoma
SW-620 colon = test system: SW-620 colon
PC-3 prostate = test system: PC-3 prostate
HCT-15 colon = test system: HCT-15 colon
NCI/ADR-RES ovarian = test system: NCI/ADR-RES ovarian
EKVX NSCLC = test system: EKVX NSCLC
HS 578T breast = test system: HS 578T breast
MDA-MB-231 breast = test system: MDA-MB-231 breast
BT-549 breast = test system: BT-549 breast
LOX IMVI melanoma = test system: LOX IMVI melanoma
RXF 393 renal = test system: RXF 393 renal
DU-145 prostate = test system: DU-145 prostate
MDA-N = test system: MDA-N
MDA-MB-435 = test system: MDA-MB-435
M14 melanoma = test system: M14 melanoma
MCF7 breast = test system: MCF7 breast
T-47D breast = test system: T-47D breast
OVCAR-4 ovarian = test system: OVCAR-4 ovarian
786-0 renal = test system: 786-0 renal
SN12C renal = test system: SN12C renal
CAKI-1 renal = test system: CAKI-1 renal
A498 renal = test system: A498 renal

Measured: TGI

CC(=O)Nc1ccc(C(=O)NN2C(=O)C(Cl)/C2=C/c2ccco2)cc1 (stereo not given)
> 100 µM: SR leukemia | SNB-75 CNS | OVCAR-3 ovarian | CCRF-CEM leukemia | TK-10 renal | MOLT-4 leukemia | NCI-H460 lung | HOP-92 NSCLC | SF-295 CNS | SK-MEL-5 melanoma | SNB-19 CNS | HOP-62 NSCLC | SK-MEL-28 melanoma | UACC-257 melanoma | A549 NSCLC | HCT-116 colon | HOP-18 NSCLC | HCC-2998 colon | SF-268 CNS | NCI-H522 lung | ACHN renal | DLD-1 colon | COLO 205 colon | UACC-62 melanoma | OVCAR-5 ovarian | IGROV1 ovarian | MALME-3M melanoma | SF-539 CNS | KM12 colon | HT29 colon | UO-31 renal | LXFL 529 NSCLC | OVCAR-8 ovarian | HL-60(TB) leukemia | M19-MEL melanoma | NCI-H23 lung | K-562 leukemia | U251 CNS | SK-OV-3 ovarian | NCI-H226 lung | RPMI-8226 leukemia | SK-MEL-2 melanoma | SW-620 colon

O=C(O)C(O)C(O)C(=O)O (stereo not given)
> 100 µM: SR leukemia | SNB-75 CNS | PC-3 prostate | OVCAR-3 ovarian | CCRF-CEM leukemia | TK-10 renal | HCT-15 colon | NCI/ADR-RES ovarian | MOLT-4 leukemia | NCI-H460 lung | EKVX NSCLC | HOP-92 NSCLC | SF-295 CNS | SK-MEL-5 melanoma | SNB-19 CNS | HS 578T breast | HOP-62 NSCLC | SK-MEL-28 melanoma | UACC-257 melanoma | A549 NSCLC | HCT-116 colon | MDA-MB-231 breast | BT-549 breast | LOX IMVI melanoma | RXF 393 renal | SF-268 CNS | NCI-H522 lung | ACHN renal | COLO 205 colon | UACC-62 melanoma | OVCAR-5 ovarian | IGROV1 ovarian | MALME-3M melanoma | DU-145 prostate | MDA-N | SF-539 CNS | MDA-MB-435 | M14 melanoma | KM12 colon | HT29 colon | MCF7 breast | T-47D breast | UO-31 renal | OVCAR-8 ovarian | HL-60(TB) leukemia | OVCAR-4 ovarian | 786-0 renal | SN12C renal | K-562 leukemia | U251 CNS | SK-OV-3 ovarian | NCI-H226 lung | RPMI-8226 leukemia | CAKI-1 renal | SK-MEL-2 melanoma | SW-620 colon | A498 renal
